# Laboratory results: the supplement of paper PMC10307832
# What was measured:
# Experiment in all cases: relative viability (nuclei count vs DMSO), 5 days (fraction); higher = more cells survive
# AZ3146 + Pemetrexed = compound: CN1CCC(CC1)OC2=CC(=C(C=C2)NC3=NC=C4C(=N3)N(C(=O)N4C)C5CCCC5)OC [AZ3146] + Nc1nc2[nH]cc(CCc3ccc(C(=O)N[C@@H](CCC(=O)O)C(=O)O)cc3)c2c(=O)[nH]1 [Pemetrexed] (partner 0.2 µM)
# How it was run: (§1)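 Cells from lung cancer lines were seeded into 1536-well plates and, one day later, dosed by pin tool. Treatments were either a single drug or a fixed dose of an anchor drug with five library-drug doses (not always all listed) in √10 steps. After 5 days, nuclei were stained in a one-step fixation (final 0.05% Triton X-100, 1% formaldehyde, 1 ug/ml Hoechst) and counted on 4× images, and relative viability is the treated-to-vehicle nuclei ratio, as the median of duplicate plates.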
# GSK-J4 + Palbociclib = compound: CCOC(=O)CCNc1cc(N2CCc3ccccc3CC2)nc(-c2ccccn2)n1 [GSK-J4] + CC(=O)c1c(C)c2cnc(Nc3ccc(N4CCNCC4)cn3)nc2n(C2CCCC2)c1=O [Palbociclib] (partner 0.5 µM)
# How it was run: as §1
# GSK-J4 + Alpelisib = compound: CCOC(=O)CCNc1cc(N2CCc3ccccc3CC2)nc(-c2ccccn2)n1 [GSK-J4] + Cc1nc(NC(=O)N2CCC[C@H]2C(N)=O)sc1-c1ccnc(C(C)(C)C(F)(F)F)c1 [Alpelisib] (partner 2 µM)
# How it was run: as §1
# AZ3146 + Pictilisib = compound: CN1CCC(CC1)OC2=CC(=C(C=C2)NC3=NC=C4C(=N3)N(C(=O)N4C)C5CCCC5)OC [AZ3146] + CS(=O)(=O)N1CCN(Cc2cc3nc(-c4cccc5[nH]ncc45)nc(N4CCOCC4)c3s2)CC1 [Pictilisib] (partner 1 µM)
# How it was run: as §1
Cell Line,relative viability (AZ3146 + Pemetrexed; first compound 0.8 µM),relative viability (AZ3146 + Pemetrexed; first compound 2.53 µM),relative viability (AZ3146 + Pemetrexed; first compound 8 µM),relative viability (GSK-J4 + Palbociclib; first compound 0.5 µM),relative viability (GSK-J4 + Palbociclib; first compound 1.581 µM),relative viability (GSK-J4 + Palbociclib; first compound 5 µM),relative viability (GSK-J4 + Palbociclib; first compound 15.81 µM),relative viability (GSK-J4 + Palbociclib; first compound 50 µM),relative viability (GSK-J4 + Alpelisib; first compound 0.5 µM),relative viability (GSK-J4 + Alpelisib; first compound 1.581 µM),relative viability (GSK-J4 + Alpelisib; first compound 5 µM),relative viability (GSK-J4 + Alpelisib; first compound 15.81 µM),relative viability (GSK-J4 + Alpelisib; first compound 50 µM),relative viability (AZ3146 + Pictilisib; first compound 0.08 µM),relative viability (AZ3146 + Pictilisib; first compound 2.53 µM),relative viability (AZ3146 + Pictilisib; first compound 8 µM),relative viability (AZ3146 + Pemetrexed; first compound 0.08 µM),relative viability (AZ3146 + Pemetrexed; first compound 0.253 µM),relative viability (AZ3146 + Pictilisib; first compound 0.253 µM),relative viability (AZ3146 + Pictilisib; first compound 0.8 µM)
LK-2,0.168,0.318,0.307,0.765,0.652,0.85,0.683,0.506,1.04,1.08,1.41,1.3,1.23,0.49,0.668,0.668,–,–,–,–
NCI-H23,0.857,0.787,0.45,0.483,0.398,0.48,0.375,0.42,0.781,–,0.892,0.605,0.604,0.453,0.494,0.451,0.789,0.645,0.568,0.483
NCI-H441,0.251,0.266,0.274,0.235,0.202,0.241,0.221,0.161,0.741,0.521,0.475,0.736,0.57,0.46,0.537,0.503,0.256,0.251,0.532,0.467
NCI-H2009,1.04,0.989,1.03,0.242,0.166,0.223,0.216,0.202,1.1,1.16,1.08,1.1,0.966,0.891,0.917,0.605,1.05,0.996,0.962,0.886
NCI-H2170,0.26,0.268,0.281,0.372,0.393,0.392,0.311,0.378,0.787,0.803,0.878,0.781,0.713,0.297,0.297,0.243,0.269,0.248,0.315,0.327
NCI-H1299,–,–,–,–,–,–,–,–,1.01,0.899,0.975,1.04,1.04,0.786,0.734,0.264,–,–,0.976,0.677
HCC-78,0.911,0.91,0.895,0.498,–,0.48,0.435,0.486,0.403,0.31,0.501,–,0.316,–,0.223,0.211,–,1,0.23,0.225
NCI-H3122,0.203,0.2,0.185,0.18,0.2,0.181,0.177,0.191,0.78,0.634,0.95,0.716,0.674,0.613,0.639,0.684,0.197,0.191,0.614,0.555
NCI-H2085,0.869,0.887,0.705,0.451,0.434,0.386,0.495,0.494,0.894,0.863,0.888,0.898,0.789,0.486,0.547,0.438,0.923,0.824,0.433,0.506
